Test results from the supplement of paper PMC10307832.

Each cell line was assayed with CCn1c(-c2nonc2N)nc2c(C#CC(C)(C)O)ncc(OC[C@H]3CCCNC3)c21 + O=C(CCCCCCC(=O)Nc1ccccc1)NO [Vorinostat] (partner 1 µM) (assay: relative viability (nuclei count vs DMSO), 5 days (fraction); higher = more cells survive). Conditions: first compound 0.01 µM.
Outline: (§1)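 For relative viability, nuclei counts in treated wells were divided by those in vehicle wells. Lung cancer cell lines had been pin-tool dosed in 1536-well plates the day after seeding and cultured for 5 days, then fixed and stained in one step (final 0.05% Triton X-100, 1% formaldehyde, 1 ug/ml Hoechst) and imaged at 4×. Doses were one drug alone or a fixed anchor-drug dose plus five library-drug doses (not always all listed) in √10 steps, and values are duplicate-plate medians.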

Going from HCC-827 to LXF-289, the relative viability falls from 0.86 to 0.822.

First: NCI-H23
Second: NCI-H647
The relative viability of the first is lower: 0.559 for the first, 0.616 for the second.

First: CAL-12T
Second: NCI-H1651
The relative viability of the first is higher: 0.747 for the first, 0.553 for the second.

Going from EPLC-272H to NCI-H2228, the relative viability rises from 0.507 to 0.539.

Going from NCI-H1355 to NCI-H3122, the relative viability rises from 0.659 to 1.07.

First: NCI-H1437
Second: NCI-H1755
The relative viability of the first is higher: 0.812 for the first, 0.725 for the second.

Compared with NCI-H2023, HCC-15 is higher in relative viability: 0.615 for the first, 0.97 for the second.

Work on PC-14 yielded a relative viability of 0.68.

Same assay, conditions: first compound 0.03162 µM

Compared with HCC-827, LXF-289 is lower in relative viability: 0.866 for the first, 0.791 for the second.

First: NCI-H23
Second: NCI-H647
The relative viability of the first is higher: 0.591 for the first, 0.491 for the second.

Compared with CAL-12T, NCI-H1651 is lower in relative viability: 0.679 for the first, 0.606 for the second.

Going from EPLC-272H to NCI-H2228, the relative viability rises from 0.426 to 0.828.

Compared with NCI-H1355, NCI-H3122 is higher in relative viability: 0.549 for the first, 1.01 for the second.

Going from NCI-H1437 to NCI-H1755, the relative viability falls from 0.794 to 0.66.

First: NCI-H2023
Second: HCC-15
The relative viability of the first is lower: 0.642 for the first, 0.858 for the second.

Work on PC-14 yielded a relative viability of 0.742.

Same assay, conditions: first compound 0.1 µM

First: HCC-827
Second: LXF-289
The relative viability of the first is higher: 0.831 for the first, 0.737 for the second.

Going from NCI-H23 to NCI-H647, the relative viability falls from 0.626 to 0.603.

Going from CAL-12T to NCI-H1651, the relative viability falls from 0.683 to 0.613.

First: EPLC-272H
Second: NCI-H2228
The relative viability of the first is higher: 0.573 for the first, 0.409 for the second.

Going from NCI-H1355 to NCI-H3122, the relative viability rises from 0.617 to 1.05.

First: NCI-H1437
Second: NCI-H1755
The relative viability of the first is higher: 0.955 for the first, 0.637 for the second.

Compared with NCI-H2023, HCC-15 is higher in relative viability: 0.58 for the first, 0.894 for the second.

Cell Line PC-14 has a relative viability of 0.722.

Same assay, conditions: first compound 0.3162 µM

First: HCC-827
Second: LXF-289
The relative viability of the first is higher: 0.76 for the first, 0.737 for the second.

Compared with NCI-H23, NCI-H647 is lower in relative viability: 0.558 for the first, 0.358 for the second.

First: CAL-12T
Second: NCI-H1651
The relative viability of the first is higher: 0.675 for the first, 0.52 for the second.

Compared with EPLC-272H, NCI-H2228 is higher in relative viability: 0.393 for the first, 0.7 for the second.

Compared with NCI-H1355, NCI-H3122 is higher in relative viability: 0.55 for the first, 1.06 for the second.

Going from NCI-H1437 to NCI-H1755, the relative viability falls from 0.791 to 0.762.

Going from NCI-H2023 to HCC-15, the relative viability rises from 0.394 to 0.769.

PC-14 showed a relative viability of 0.556.

Same assay, conditions: first compound 1 µM

First: HCC-827
Second: LXF-289
The relative viability of the first is higher: 0.834 for the first, 0.808 for the second.

First: NCI-H23
Second: NCI-H647
The relative viability of the first is lower: 0.531 for the first, 0.587 for the second.

First: CAL-12T
Second: NCI-H1651
The relative viability of the first is lower: 0.603 for the first, 0.632 for the second.

First: EPLC-272H
Second: NCI-H2228
The relative viability of the first is higher: 0.571 for the first, 0.497 for the second.

Going from NCI-H1355 to NCI-H3122, the relative viability rises from 0.619 to 0.994.

Compared with NCI-H1437, NCI-H1755 is lower in relative viability: 0.952 for the first, 0.841 for the second.

First: NCI-H2023
Second: HCC-15
The relative viability of the first is lower: 0.488 for the first, 0.881 for the second.

Work on PC-14 yielded a relative viability of 0.461.

Each cell line was assayed with CCn1c(-c2nonc2N)nc2c(C#CC(C)(C)O)ncc(OC[C@H]3CCCNC3)c21 + Cc1nc(Nc2ncc(C(=O)Nc3c(C)cccc3Cl)s2)cc(N2CCN(CCO)CC2)n1 [Dasatinib] (partner 0.075 µM) in the same assay as above. Conditions: first compound 0.01 µM.
Outline: as §1

First: HCC-827
Second: LXF-289
The relative viability of the first is lower: 0.242 for the first, 0.249 for the second.

Going from NCI-H23 to NCI-H647, the relative viability falls from 0.798 to 0.193.

First: CAL-12T
Second: NCI-H1651
The relative viability of the first is lower: 0.404 for the first, 0.43 for the second.

First: EPLC-272H
Second: NCI-H2228
The relative viability of the first is lower: 0.357 for the first, 0.451 for the second.

Compared with NCI-H1355, NCI-H3122 is higher in relative viability: 0.64 for the first, 0.68 for the second.

Going from NCI-H1437 to NCI-H1755, the relative viability rises from 0.381 to 0.432.

Compared with NCI-H2023, HCC-15 is higher in relative viability: 0.454 for the first, 0.57 for the second.

For PC-14, the relative viability was 0.243.

Same assay, conditions: first compound 0.03162 µM

Compared with HCC-827, LXF-289 is lower in relative viability: 0.34 for the first, 0.223 for the second.

First: NCI-H23
Second: NCI-H647
The relative viability of the first is higher: 0.631 for the first, 0.224 for the second.

Going from CAL-12T to NCI-H1651, the relative viability falls from 0.459 to 0.402.

Compared with EPLC-272H, NCI-H2228 is higher in relative viability: 0.413 for the first, 0.526 for the second.

Going from NCI-H1355 to NCI-H3122, the relative viability rises from 0.66 to 0.859.

Compared with NCI-H1437, NCI-H1755 is higher in relative viability: 0.359 for the first, 0.419 for the second.

First: NCI-H2023
Second: HCC-15
The relative viability of the first is higher: 0.572 for the first, 0.548 for the second.

PC-14 showed a relative viability of 0.292.

Same assay, conditions: first compound 0.1 µM

First: HCC-827
Second: LXF-289
The relative viability of the first is higher: 0.296 for the first, 0.205 for the second.

First: NCI-H23
Second: NCI-H647
The relative viability of the first is higher: 0.795 for the first, 0.184 for the second.

Compared with CAL-12T, NCI-H1651 is higher in relative viability: 0.343 for the first, 0.412 for the second.

Compared with EPLC-272H, NCI-H2228 is higher in relative viability: 0.382 for the first, 0.583 for the second.

First: NCI-H1355
Second: NCI-H3122
The relative viability of the first is lower: 0.738 for the first, 0.857 for the second.

First: NCI-H1437
Second: NCI-H1755
The relative viability of the first is lower: 0.391 for the first, 0.423 for the second.

First: NCI-H2023
Second: HCC-15
The relative viability of the first is lower: 0.492 for the first, 0.651 for the second.

Cell Line PC-14 has a relative viability of 0.28.

Same assay, conditions: first compound 0.3162 µM

Compared with HCC-827, LXF-289 is lower in relative viability: 0.354 for the first, 0.234 for the second.

First: NCI-H23
Second: NCI-H647
The relative viability of the first is higher: 1.05 for the first, 0.152 for the second.

Going from CAL-12T to NCI-H1651, the relative viability rises from 0.323 to 0.396.

Compared with EPLC-272H, NCI-H2228 is higher in relative viability: 0.334 for the first, 0.482 for the second.

First: NCI-H1355
Second: NCI-H3122
The relative viability of the first is lower: 0.682 for the first, 0.852 for the second.

First: NCI-H1437
Second: NCI-H1755
The relative viability of the first is lower: 0.385 for the first, 0.42 for the second.

Going from NCI-H2023 to HCC-15, the relative viability rises from 0.388 to 0.482.

For PC-14, the relative viability was 0.237.

Same assay, conditions: first compound 1 µM

First: HCC-827
Second: LXF-289
The relative viability of the first is higher: 0.335 for the first, 0.187 for the second.

First: NCI-H23
Second: NCI-H647
The relative viability of the first is higher: 0.884 for the first, 0.164 for the second.

First: CAL-12T
Second: NCI-H1651
The relative viability of the first is lower: 0.326 for the first, 0.454 for the second.

For EPLC-272H, the relative viability was 0.397.
